Entries after “also recorded” stand apart in the source; their conditions may differ.

The record followed here is US20080038809A1, “ISOLATED LECTIN POLYPEPTIDES CONSISTING OF TRUNCATED […] UDP-GalNAc:POLYPEPTIDE N- ACETYLGALACTOSAMINYLTRANSFERASES” (GLYCOZYM APS, priority 2002, published 2008).

The subject of test [1] is MUC1 expression in CHO1d1D/MUC1F-clone2 cells. The experiment in a line: MUC1 expression in cell lysates by immunoprecipitation, SDS-PAGE and western blot. The class given is cell-based, Chinese hamster (CHO 1d1D cells); human MUC1. The conditions noted are these: 2 mM; for MUC1 expression: cells in GalNAc or Gal and GalNAc; for SDS-PAGE migration of MUC1 (O-glycan extension): cells in Gal and GalNAc. Here is the method:
FIG. 12 is an SDS-PAGE Western analysis of GalNAcα-benzyl inhibition of MUC1 expression in CHO 1d1D cells stably transfected with a full coding MUC1 construct. […] Cells were further treated with 2 mM GalNAcα-benzyl (lanes 1, 4, 7, 10), 2 mM GlcNAcα-benzyl (lanes 2, 5, 8, 11) or no inhibitor (lanes 3, 6, 9, 12). Cells were washed and lysed at 24 or 48 hours and the lysates subjected to immunoprecipitation with monoclonal antibody HMFG2, which broadly recognize MUC1 glycoforms. Immunoprecipitates were analysed by SDS-PAGE and western blot using HMFG2 antibody to detect MUC1 expression. Lane M indicates molecular markers with assigned mw. Lane C includes a control MUC1 180-mer tandem repeat peptide which has been GalNAc-glycosylated with 3 moles GalNAc per repeat using GalNAc-T2. The sharp bands migrating at 100-200 kd are immunoglobulins indicated by IgG.
FIG. 13 is a SDS-PAGE Western analysis resulting from the same experiment as in FIG. 12, but using a novel monoclonal antibody, 5E5, to visualize MUC1 expression. […] Cells were further treated with 2 mM GalNAcα-benzyl (lanes 1, 4), 2 mM GlcNAcα-benzyl (lanes 2, 5) or no inhibitor (lanes 3, 6). Cells were washed and lysed at 48 hours and the lysates subjected to immunoprecipitation with monoclonal antibody HMFG2, which broadly recognize MUC1 glycoforms. Immunoprecipitates were analysed by SDS-PAGE and western blot using 5E5 antibody, which selectively recognize GalNAc-glycosylated MUC1 expression and show no reactivity with unglycosylated MUC1 peptides. Lanes M and C as described in legend to FIG. 12.
Cells were further treated with 2 mM GalNAcα-benzyl (lanes 1, 4, 7, 10), 2 mM GalNAcβ-benzyl (lanes 2, 5, 8, 11) or 2 mM GlcNAcα-benzyl (lanes 3, 6, 9, 12). Cells were washed and lysed at 36 hours and the lysates subjected to immunoprecipitation with monoclonal antibodies HMFG2 (lanes 1-6) or 5E5 (lanes 7-12). Immunoprecipitates were analysed by SDS-PAGE and western blot using HMFG2 antibody. Lanes M and C as described in legend to FIG. 7.
FIG. 15 is an SDS-PAGE Western analysis resulting from the same experiment as FIG. 14, except that expression is visualized by the monoclonal antibody 5E5. […] Cells were further treated with 2 mM GalNAcα-benzyl (lanes 1, 4, 7, 10), 2 mM GalNAcβ-benzyl (lanes 2, 5, 8, 11) or 2 mM GlcNAcα-benzyl (lanes 3, 6, 9, 12). Cells were washed and lysed at 36 hours and the lysates subjected to immunoprecipitation with monoclonal antibodies HMFG2 (lanes 1-6) or 5E5 (lanes 7-12). Immunoprecipitates were analysed by SDS-PAGE and western blot using 5E5 antibody. Lanes M and C as described in legend to FIG. 12.
We therefore investigated the effect of treatment with GalNAcα-benzyl of CHO1d1D/MUC1F-clone2 cells grown in the presence of GalNAc. CHO1d1D/MUC1F-clone2 cells were seeded in 6 well plates at a density of 0.2×10^6 per well and were grown for 6 hours in Hams F12 medium with serum until approximately 30% subconfluent. […] After 18 hours, the medium was replaced with fresh Optimem containing the sugars and benzyl derivatives as above and grown for 12-48 hours. Initially we analyzed surface expression of MUC1 by immunocytology. Cells were washed once in PBS-CMF (phosphate buffered saline Calcium and Magnesium free) after carefully removing the medium from the wells and subsequently fixed in 2 ml 3% paraformaldehyde at 25° C. for 20 min followed by three washes with PBS-CMF 3 times. Free aldehyde groups were quenched by incubating in 2 mL 50 mM Ammonium Chloride in PBS-CMF for 10 min, followed by three washes with PBS-CMF and three washes with 5 min incubations each with PBS-CMF containing 0.2% Fish Skin Gelatin (Sigma). Immunostaining of cells was performed by incubation with monoclonal antibodies for 40 min at 25° C., followed by three washes with PBS-CMF and three washes of 5 min each with PBS-CMF containing 0.2% Fish Skin Gelatin. […]
On the technique in general: A western blot detects proteins with antibodies after separation by electrophoresis.

Test [2] deals with MUC5AC secretion, HT29MTX cells. In words: MUC5AC secretion from HT29MTX cells by SDS-PAGE Western blotting of media. It is filed as cell-based, human. The conditions noted are these: 5 mM, 14 days, LUM5-1 antibody. The procedure: FIG. 17 illustrates SDS-PAGE Western analysis of MUC5AC secretion from HT29MTX cells using polyclonal anti-MUC5AC antibody LUM5-1. In order to evaluate GalNAcβ-benzyl as an inhibitor of mucin glycosylation and secretion we used the HT-29 metotrexate (MTX) cultured colon carcinoma cells of mucin secreting phenotype. HT-29 MTX cells have a goblet cell like phenotype with constitutive production of MUC5AC. Cells were continuously grown up to 21 days in the presence of 5 mM GalNAcα-benzyl, 5 mM GalNAcβ-benzyl, 5 mM GlcNAcα-benzyl and without inhibitor. […] In striking contrast, MUC5AC was not detected in the media from cells treated with GalNAcα-benzyl (Lane 3) or GalNAcβ-benzyl (Lane 4). Results shown are from media collected at 14 days.
In order to evaluate GalNAcβ-benzyl as an inhibitor of mucin glycosylation and secretion we used the cultured colon carcinoma cells of mucin secreting phenotypes: HT-29 metotrexate (MTX) cells selected from the HT-29 cell line by culture in the presence of MTX (kind gift from G. Huet, France). The HT-29 MTX cells were selected to yield a goblet cell like phenotype with constitutive production of MUC5AC. In order to ensure proper goblet cell differentiation the HT29MTX cell line were continuously grown up to 21 days in the presence of 5 mM GalNAcα-benzyl, 5 mM GalNAcβ-benzyl, 5 mM GlcNAcα-benzyl and without inhibitor using culture conditions as described in Hennebicq-Reig et al. (Permanent exposure of mucin-secreting HT-29 cells to benzyl-N-acetyl-alpha-D-galactosaminide induces abnormal O-glycosylation of mucins and inhibits constitutive and stimulated MUC5AC secretion. Biochem J. 1998; 334:283-95). […] Furthermore the viscosity of the media from cells with and without inhibitor was evaluated using viscosity micro-measurement.

[3] abbreviates: 36 hours, 5E5 blot, cells grown in GalNAc.

With `CC(=O)N[C@H]1[C@@H](OCc2ccccc2)O[C@H](CO)[C@H](O)[C@@H]1O` [GalNAcα-benzyl, benzyl-N-acetyl-alpha-D-galactosaminide], the “reduction in MUC1 expression” value in test [1] (setting [3]) was “strong inhibition of MUC1 expression”. In addition, the MUC1 expression entry is recorded as “significant reduction in MUC1 expression” in test [1] (48 hours, 5E5 blot) and “significant reduction in MUC1 expression” in test [1] (48 hours, HMFG2 blot). In addition, in test [1] (48 hours), the “SDS-PAGE migration of MUC1 (O-glycan extension)” value is “marked shift in migration to lower molecular weight migrating species”. Also, in test [2], the MUC5AC in media entry is listed as “diminished secretion of MUC5AC”.
Turning to `CC(=O)N[C@H]1[C@H](OCc2ccccc2)O[C@H](CO)[C@H](O)[C@@H]1O` [GalNAcβ-benzyl], the “reduction in MUC1 expression” value in test [1] (setting [3]) is recorded as “strong inhibition of MUC1 expression; also recorded: same or better reduction in MUC1 expression as treatment with GalNAcα-benzyl”; in test [1] (36 hours, HMFG2 blot), “same or better reduction in MUC1 expression as treatment with GalNAcα-benzyl”. The “SDS-PAGE migration of MUC1 (O-glycan extension)” value in test [1] (36 hours) is “no change in the migration of MUC1”. The MUC5AC in media result in test [2] was “diminished secretion of MUC5AC”.
As to `CC(=O)N[C@H]1[C@@H](OCc2ccccc2)O[C@H](CO)[C@@H](O)[C@@H]1O` [GlcNAcα-benzyl], in test [1] (48 hours, HMFG2 blot), the MUC1 expression entry was “no effect on MUC1 expression and O-glycosylation compared to untreated cells”. For the same molecule, the MUC5AC in media result in test [2] is “detected MUC5AC in media”.
